Reference: article PMC7557402, “Evaluation of Nucleoside Analogs as Antimicrobials Targeting Unique Enzymes in Borrelia burgdorferi” (Pathogens, 2020)

Experiments:
Pfs [1] = target: T1, Pfs (Borreliella burgdorferi, UniProt O50162); test: MTAN spectrophotometric activity assay (specific activity, Km); type: biochemical, Borrelia burgdorferi
Description: (§1) Recombinant MTANs were expressed and purified as previously described. Briefly, overnight 10 mL cultures of recombinant E. coli BL21(DE3) pLysS cells containing engineered pET30a expression plasmids for Bgp, MtnN or Pfs were grown at 37 °C with shaking (150 rpm) in LB broth supplemented with 50 µg/mL kanamycin and 0.5% glucose. The culture was diluted 1:50 in fresh medium and incubated at 37 °C with shaking (150 rpm) until the absorbance (600 nm) reached 0.4–0.6. Protein expression was induced with the addition of isopropyl β-D-1-thiogalactopyranoside (IPTG) to a final concentration of 1 mM and continued overnight incubation with shaking at 30 °C. Cells were harvested by centrifugation (10,000× g/15 min), and the pellet was washed once with ice-cold lysis buffer (50 mM sodium phosphate, pH = 8.0, 300 mM NaCl, 10 mM imidazole, 2mM β mercaptoethanol). Harvested cell pellets were resuspended in 10 mL fresh lysis buffer and lysed by sonication on ice using a Misonix Sonicator 300 (power setting 7, pulse 30 s, 1 min cooling with total sonication for 2.5 min). The cell lysates were centrifuged at 10,000× g for 15 min at 4 °C to remove debris, and the lysate was further filtered through a […] syringe filter to obtain a clear extract. Recombinant N-terminal hexahistidine tagged proteins were purified from the lysate using HisPur™ affinity columns (Thermo Scientific) according to the manufacturer’s specifications, and specifically eluted with 250 mM imidazole containing buffer (pH = 7). Eluted materials were analyzed by SDS-PAGE and Coomassie blue staining and found to be >95% homogeneous. Enzyme concentrations were determined using UV scans on a Cary100 spectrophotometer (Agilent) to determine the absorbance at 280 nm and applying extinction coefficients (0.1%) of 0.594 (Bgp), 0.637 (MtnN), and 0.404 (Pfs). Enzyme stocks (1 mg/mL) were prepared in 20% glycerol and stored at −80 °C.
(§2) Enzyme specific activities were determined using previously reported optimal pH conditions (50 mM sodium phosphate, pH = 7, for Bgp, MtnN; 50 mM sodium phosphate-citrate, pH = 5, for Pfs) and a spectrophotometric activity assay that measures the decrease in UV absorbance at 275 nm that occurs when MTA is cleaved to 5-methylthioribose and adenine (ε275 = 1.6 mM^−1cm^−1). The extinction coefficients for cleavage of other nucleosides were experimentally validated and found to be the same for MSeA, FSBA, and IADO (ε275 = 1.6 mM^−1cm^−1). Due to the added UV absorbance imparted by the 5′ purine group found in PurTA, the enzyme reactions were followed spectrophotometrically at 260 nm using the experimentally determined extinction coefficient of ε260 = 5.6 mM^−1cm^−1. Enzyme specific activities for MTA were generally 1–2 U/mg (1 U = µmol MTA hydrolyzed/min). The enzyme specific activities for other nucleosides were determined and reported in U/mg and as the % max specific activity (relative to MTA at 100%).
(§3) Kinetic constants have been previously reported for MTA [18]. As MSeA was also an efficient substrate for the B. burgdorferi nucleosidases, kinetic constants were determined using the activity assay described above, varying the nucleoside concentrations from 1 to 20 µM, and fitting the data on substrate-velocity plots to the Michaelis–Menten equation using GraphPad Prism (version 6):(1) Vo=Vmax[S]/Km+[S]

MtnN [2] = target: T2, MtnN (Borreliella burgdorferi, UniProt O50860); test: as above; type: biochemical, Borrelia burgdorferi
Description: as §1, §2, §3

Bgp = Bgp (Borreliella burgdorferi, UniProt Q9F952); test: as above; type: biochemical, Borrelia burgdorferi
Description: as §1, §2, §3

Pfs [3] = target: T1, Pfs; test: MTAN inhibition constants (competitive inhibition of MTA hydrolysis); type: biochemical, Borrelia burgdorferi; settings: MTA 100 µM, inhibitor 0 to 100 µM, read-out: Ki (inhibition constant)
Description: (§4) For the other compounds, inhibition constants (Ki’s) were determined as previously described, using an MTA concentration of 100 µM and varying the inhibitor concentration from 0 to 100 µM. The inhibited velocity (Vo’) and uninhibited velocity (Vo) values were determined, and the ratio of Vo’/Vo plotted as a function of inhibitor concentration. Ki values were calculated from these plots by fitting the data to the equation for competitive inhibition using GraphPad Prism:(2) Vo^′/Vo=Km+[S]/Km+[S]+(Km[I]/Ki)
(§5) The enzyme inhibition constant and delayed onset inhibition constant for dET-ImmA was previously reported.

MtnN [4] = target: T2, MtnN; test: as above; type: biochemical, Borrelia burgdorferi; settings: MTA 100 µM, inhibitor 0 to 100 µM, read-out: Ki (inhibition constant)
Description: as §4, §5

[5] = system: Borrelia MTANs (Bgp, MtnN, Pfs); test: MTAN activity/kinetics, across the nucleosidases; type: biochemical; settings: range over the B. burgdorferi nucleosidases
Description: as §2, §3, §4

[6] = pH 7, 1 U = 1 µmol MTA hydrolyzed per minute

T1 sequence (O50162 entry or part of it): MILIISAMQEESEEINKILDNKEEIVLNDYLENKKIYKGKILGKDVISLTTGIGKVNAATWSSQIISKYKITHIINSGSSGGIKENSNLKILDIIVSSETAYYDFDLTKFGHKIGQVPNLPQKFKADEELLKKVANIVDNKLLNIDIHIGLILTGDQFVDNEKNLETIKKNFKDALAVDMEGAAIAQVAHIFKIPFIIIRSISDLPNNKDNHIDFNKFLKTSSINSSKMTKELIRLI
T2 sequence (O50860 entry or part of it): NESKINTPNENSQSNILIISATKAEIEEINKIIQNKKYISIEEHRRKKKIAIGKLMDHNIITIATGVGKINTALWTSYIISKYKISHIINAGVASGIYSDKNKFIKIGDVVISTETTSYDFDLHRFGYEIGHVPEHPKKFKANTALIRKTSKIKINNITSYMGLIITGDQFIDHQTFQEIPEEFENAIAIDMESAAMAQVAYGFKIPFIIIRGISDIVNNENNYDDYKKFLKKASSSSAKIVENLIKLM
Chain of Bgp (Q9F952 entry or part of it): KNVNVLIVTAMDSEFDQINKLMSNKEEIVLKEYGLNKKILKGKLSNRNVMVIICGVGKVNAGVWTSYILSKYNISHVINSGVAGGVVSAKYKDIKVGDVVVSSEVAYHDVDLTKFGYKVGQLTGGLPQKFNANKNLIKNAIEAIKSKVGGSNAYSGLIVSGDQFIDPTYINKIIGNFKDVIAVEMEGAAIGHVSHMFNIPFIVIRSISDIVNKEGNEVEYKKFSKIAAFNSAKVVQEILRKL

Nc1ncnc2c1ncn2[C@@H]1O[C@H](CI)[C@@H](O)[C@H]1O [IADO, 5′-deoxy-5′-iodoadenosine]
Specific Activity (Pfs [1]; pH 5, 1 U = 1 µmol MTA hydrolyzed per minute): 0.11 U/mg | % Max Specific Activity (Pfs [1]; relative to MTA as a substrate): 6% | Specific Activity (MtnN [2]; [6]): 0.03 U/mg | % Max Specific Activity (MtnN [2]; relative to MTA as a substrate): 3% | Specific Activity (Bgp; [6]): 0.04 U/mg | % Max Specific Activity (Bgp; relative to MTA as a substrate): 4% | Ki (Pfs [3]): 900 nM | Ki (MtnN [4]): 2470 nM | activity relative to that found for MTA [5]: 3–6%
